Data: patent US10435361B2, “Kinase inhibitors” (Topivert Pharma Limited, priority 2013, dated 2019)
Where two headings read alike, the source gives them in different places.

Columns and labels:
PBMCs = test: Cell mitosis assay in PBMCs; assay type: cell-based; conditions: Homo sapiens, PBMC, 5 μg/mL
How it was run: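 Human PBMCs from healthy donors, density-gradient isolated, stimulated with 2% PHA 48 h, then exposed 20 h to test compounds; demecolcine 0.1 μg/mL added 2 h before harvest. Fixed/permeabilised cells stained for phospho-histone H3 and propidium iodide; mitotic lymphocytes counted by flow cytometry.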

Lewis rats = test: Endotoxin-induced uveitis in rats; assay type: in vivo; conditions: rats treated with intravitreal endotoxin LPS
Description: Male, Lewis rats (6-8 weeks old, Charles River UK Limited) are housed in cages of 3 at 19-21° C. with a 12 h light/dark cycle (07:00/19:00) and fed a standard diet of rodent chow and water ad libitum. Non-fasted rats are weighed, individually identified on the tail with a permanent marker, and receive a single intravitreal administration into the right vitreous humor (5 μL dose volume) of 100 ng/animal of LPS (Escherichia coli 0111:B4 prepared in PBS, Sigma Aldrich, UK) using a 32-gauge needle. Untreated rats are injected with PBS. Test compound, dexamethasone (Dex) or vehicle (20% hydroxypropyl-β-cyclodextrin, 0.1% HPMC, 0.01% Benzalkonium chloride, 0.05% EDTA, 0.7% NaCl in deionised water) are administered by the topical route onto the right eye (10 μL) of animals 30 minutes prior to LPS, at the time of LPS administration, and 1, 2 and 4 hours post LPS administration. Before administration, the solution or suspension to be administered is agitated for 5 minutes to ensure a uniform suspension. 6 hours after LPS dosing, animals are euthanized by overdose with pentobarbitone (i.v.). Following euthanasia, the right eye of each animal is enucleated and dissected into front (anterior) and back (posterior) sections around the lens. Each section is weighed and homogenised in 500 μL of sterile phosphate buffered saline followed by 20 minutes centrifugation at 12000 rpm at 4° C. The resulting supernatant is divided into 3 aliquots and stored at −80° C. until subsequent cytokine analysis by R&D DuoSet ELISA.

d-U937 cells = test: LPS-induced TNFα/IL-8 release in d-U937 cells; assay type: cell-based; conditions: Homo sapiens, dU937, assay (aa)
Description: U937 cells, a human monocytic cell line, are differentiated to macrophage-type cells by incubation with phorbol myristate acetate (PMA; 100 ng/mL) for 48 to 72 hr. Cells are pre-incubated with final concentrations of test compound for 2 hr and are then stimulated with 0.1 μg/mL of LPS (from E. Coli: 0111:B4, Sigma) for 4 hr. The supernatant is collected for determination of TNFα and IL-8 concentrations by sandwich ELISA (Duo-set, R&D systems). […] The relative 50% effective concentration (REC50) is determined from the resultant concentration-response curve. The inhibition of IL-8 production is calculated at each concentration of test compound by comparison with vehicle control.

[1] = Plasma pharmacokinetics and total colon tissue distribution in mice, single oral administration; assay type: in vivo, C57BL/6 mice; conditions: male, C57BL/6, mouse, 5 mg/kg, read-out: Median plasma concentration
Description: Studies were conducted by Sai Life Sciences (Hinjewadi, Pune, India) to investigate the plasma pharmacokinetics and total colon tissue distribution of compounds of the invention. In particular, pharmacokinetic studies were carried out in: • male C57BL/6 mice, following a single oral administration; and • male Wistar rats following a single intravenous or oral administration.

[2] = Analysis of metabolites after incubation with hepatocytes; assay type: in vitro ADME; conditions: rat, Cynomolgus macaque, human hepatocytes
Description: Studies were conducted by BioFocus (Saffron Walden, UK) to determine the metabolic fate of the compound of Example 16 following incubation with rat, Cynomolgus macaque or human hepatocytes.
Separate incubations (n=3) of the compound of Example 16 (10 μM initial concentration) or DMSO control, were performed with cryopreserved hepatocytes from each species (0.5 million cell/mL) at 37° C. for 0, 60 and 90 minutes before termination of reactions and compound extraction with acetonitrile. Sample replicates were pooled prior to analysis.
Potential metabolites were identified using time-of-flight (TOF) and triple quadruple (TQ) mass spectrometers.

SMILES	inhibition at 5 µg/mL (PBMCs)	cytokine levels in the anterior and posterior segments of the eyes (Lewis rats)	IC50 (d-U937 cells; method: relative to 10 μg/mL BIRB796 (REC50), read-out: IC50 Values for Inhibition of Cytokine Release dU937 cells TNFα)	IC50 (d-U937 cells; read-out: IC50 Values for Inhibition of Cytokine Release dU937 cells IL-8)	concentration at 1 h [1]	concentration at 2 h [1]	concentration at 4 h [1]	concentration at 6 h [1]	concentration at 8 h [1]	concentration at 12 h [1]	concentration at 24 h [1]	number of metabolites formed in hepatocytes ([2]; 10 μM, 0, 60 and 90 minutes)	metabolism at the naphthalene moiety ([2]; 10 μM)
COCCOCCOCCOc1cc(Nc2nccc(Oc3ccc(NC(=O)Nc4cc(C(C)(C)C)cc(NS(C)(=O)=O)c4OC)c4ccccc34)n2)cc(OC)c1 [Example 4, N-(5-(tert-Butyl)-2-methoxy-3-(3-(4-((2-((3-methoxy-5-(2-(2-(2-methoxyethoxy)ethoxy)-ethoxy)phenyl)amino)pyrimidin-4-yl)oxy)naphthalen-1-yl)ureido)phenyl)methanesulfonamide]	43%	significantly reduced	1 nM	0.8 nM	–	–	–	–	–	–	–	–	–
C#Cc1cc(Nc2nccc(Oc3ccc(NC(=O)Nc4cc(C(C)(C)C)cc(NS(C)(=O)=O)c4OC)c4ccccc34)n2)cc(C(=O)NCCOCCOCCOC)c1 [Example 16, 3-((4-((4-(3-(5-(tert-Butyl)-2-methoxy-3-(methylsulfonamido)phenyl)ureido)naphthalen-1-yl)oxy)pyrimidin-2-yl)amino)-5-ethynyl-N-(2-(2-(2-methoxyethoxy)ethoxy)ethyl)benzamide]	20.5%	–	–	–	0 ng/mL	0 ng/mL	0 ng/mL	0 ng/mL	0 ng/mL	0 ng/mL	0 ng/mL	9	no products were noted that could be connected to metabolism at the naphthalene moiety
COc1cc(Nc2cc(Oc3ccc(NC(=O)Nc4cc(C(C)(C)C)cc(NS(C)(=O)=O)c4OC)c4ccccc34)ccn2)cc(C(=O)NCCN2CCOCC2)c1 [Example 27, 3-((4-((4-(3-(5-(tert-Butyl)-2-methoxy-3-(methylsulfonamido)phenyl)ureido)naphthalen-1-yl)oxy)pyridin-2-yl)amino)-5-methoxy-N-(2-morpholinoethyl)benzamide]	49.8%	significantly reduced	–	–	–	–	–	–	–	–	–	–	–
